In the NIST ThermoML archive (doi:10.1016/j.jct.2018.04.018):
Where “and” joins values, the source holds several entries; their conditions need not be identical. Equal values may be shown once.

Details: 101.33 kPa, Liquid; for mass density: Vibrating tube method; for speed of sound: Single path-length method

CCCCCCCC[n+]1ccn(C)c1.F[P-](F)(F)(F)(F)F [1-octyl-3-methylimidazolium hexafluorophosphate]
Details | viscosity
269.96 K, Cone and plate viscometry | 8278 mPa·s
270.27 K, Cone and plate viscometry | 7970.4 mPa·s
270.37 K, Cone and plate viscometry | 7819.7 mPa·s
270.91 K, Cone and plate viscometry | 7509 mPa·s
271.66 K, Cone and plate viscometry | 6771 mPa·s
272.33 K, Cone and plate viscometry | 6420 mPa·s
272.44 K, Cone and plate viscometry | 6269.6 mPa·s
273.24 K, Cone and plate viscometry | 5792.5 mPa·s
274.02 K, Cone and plate viscometry | 5350.3 mPa·s
274.63 K, Cone and plate viscometry | 4992.4 mPa·s
274.8 K, Cone and plate viscometry | 4951.8 mPa·s
274.81 K, Cone and plate viscometry | 4903 mPa·s
274.88 K, Cone and plate viscometry | 4879 mPa·s
275.31 K, Cone and plate viscometry | 4651.9 mPa·s
275.44 K, Cone and plate viscometry | 4635.1 mPa·s
275.56 K, Cone and plate viscometry | 4593.6 mPa·s
276.14 K, Cone and plate viscometry | 4334 mPa·s
276.34 K, Cone and plate viscometry | 4268.2 mPa·s
276.47 K, Cone and plate viscometry | 4216.3 mPa·s
276.9 K, Cone and plate viscometry | 4053 mPa·s
277.09 K, Cone and plate viscometry | 3957.1 mPa·s
277.68 K, Cone and plate viscometry | 3777 mPa·s
277.76 K, Cone and plate viscometry | 3737 mPa·s
277.85 K, Cone and plate viscometry | 3693.3 mPa·s
278.15 K, Concentric cylinders viscometry | 3543 mPa·s
278.46 K, Cone and plate viscometry | 3522.8 mPa·s
278.6 K, Cone and plate viscometry | 3439.8 mPa·s
279.19 K, Cone and plate viscometry | 3241 mPa·s
279.24 K, Cone and plate viscometry | 3279.4 mPa·s
279.34 K, Cone and plate viscometry | 3221.2 mPa·s
280.01 K, Cone and plate viscometry | 3050.1 mPa·s
280.09 K, Cone and plate viscometry | 3002.8 mPa·s
280.77 K, Cone and plate viscometry | 2845.3 mPa·s
280.78 K, Cone and plate viscometry | 2866 mPa·s
280.84 K, Cone and plate viscometry | 2803.8 mPa·s
281.53 K, Cone and plate viscometry | 2656.6 mPa·s
281.59 K, Cone and plate viscometry | 2620.4 mPa·s
282.29 K, Cone and plate viscometry | 2486.9 mPa·s
282.33 K, Cone and plate viscometry | 2458 mPa·s
282.53 K, Cone and plate viscometry | 2412.6 mPa·s
283.04 K, Cone and plate viscometry | 2331.3 mPa·s
283.08 K, Cone and plate viscometry | 2299.1 mPa·s
283.15 K, Concentric cylinders viscometry | 2263.1 mPa·s
283.79 K, Cone and plate viscometry | 2174 mPa·s
283.83 K, Cone and plate viscometry | 2154.4 mPa·s
284.54 K, Cone and plate viscometry | 2037.4 mPa·s
284.55 K, Cone and plate viscometry | 2001 mPa·s
284.58 K, Cone and plate viscometry | 2017.2 mPa·s
285.28 K, Cone and plate viscometry | 1916 mPa·s
285.32 K, Cone and plate viscometry | 1893.2 mPa·s
286.03 K, Cone and plate viscometry | 1799.7 mPa·s
286.06 K, Cone and plate viscometry | 1779.6 mPa·s
286.78 K, Cone and plate viscometry | 1697.1 mPa·s
286.8 K, Cone and plate viscometry | 1672.4 mPa·s
287.52 K, Cone and plate viscometry | 1594.4 mPa·s
287.55 K, Cone and plate viscometry | 1572.8 mPa·s
288.15 K, Concentric cylinders viscometry | 1475.1 mPa·s
288.27 K, Cone and plate viscometry | 1496.8 mPa·s
288.29 K, Cone and plate viscometry | 1479.3 mPa·s
289.02 K, Cone and plate viscometry | 1407.5 mPa·s
289.03 K, Cone and plate viscometry | 1391.9 mPa·s
289.76 K, Cone and plate viscometry | 1327.8 mPa·s
289.78 K, Cone and plate viscometry | 1313.9 mPa·s
290.5 K, Cone and plate viscometry | 1253.5 mPa·s
290.52 K, Cone and plate viscometry | 1241 mPa·s
291.24 K, Cone and plate viscometry | 1183.2 mPa·s
291.27 K, Cone and plate viscometry | 1168.4 mPa·s
291.98 K, Cone and plate viscometry | 1115.8 mPa·s
292 K, Cone and plate viscometry | 1101.8 mPa·s
292.73 K, Cone and plate viscometry | 1053.3 mPa·s
292.75 K, Cone and plate viscometry | 1040.1 mPa·s
293.15 K, Concentric cylinders viscometry | 1001.1 mPa·s
293.48 K, Cone and plate viscometry | 994.4 mPa·s
293.49 K, Cone and plate viscometry | 984.3 mPa·s
294.22 K, Cone and plate viscometry | 932.9 mPa·s
294.25 K, Cone and plate viscometry | 929.4 mPa·s
294.96 K, Cone and plate viscometry | 882.6 mPa·s
295.02 K, Cone and plate viscometry | 879.2 mPa·s
295.71 K, Cone and plate viscometry | 844.7 mPa·s
295.79 K, Cone and plate viscometry | 829.3 mPa·s
296.47 K, Cone and plate viscometry | 798 mPa·s
296.57 K, Cone and plate viscometry | 784.2 mPa·s
297.2 K, Cone and plate viscometry | 757 mPa·s
297.33 K, Cone and plate viscometry | 741.5 mPa·s
297.94 K, Cone and plate viscometry | 718 mPa·s
298.08 K, Cone and plate viscometry | 705.1 mPa·s
298.15 K, Concentric cylinders viscometry | 691.2 mPa·s
298.69 K, Cone and plate viscometry | 682.3 mPa·s
298.82 K, Cone and plate viscometry | 668.2 mPa·s
299.43 K, Cone and plate viscometry | 647.5 mPa·s
299.55 K, Cone and plate viscometry | 632.9 mPa·s
300.16 K, Cone and plate viscometry | 614.6 mPa·s
300.28 K, Cone and plate viscometry | 601.2 mPa·s
300.91 K, Cone and plate viscometry | 584.1 mPa·s
301 K, Cone and plate viscometry | 572.3 mPa·s
301.65 K, Cone and plate viscometry | 555.5 mPa·s
301.73 K, Cone and plate viscometry | 545 mPa·s
302.39 K, Cone and plate viscometry | 528.9 mPa·s
302.46 K, Cone and plate viscometry | 519.8 mPa·s
303.14 K, Cone and plate viscometry | 502.9 mPa·s
303.15 K, Concentric cylinders viscometry | 490 mPa·s
303.19 K, Cone and plate viscometry | 494.3 mPa·s
303.88 K, Cone and plate viscometry | 478.8 mPa·s
303.92 K, Cone and plate viscometry | 470.6 mPa·s
304.62 K, Cone and plate viscometry | 450.9 mPa·s
304.65 K, Cone and plate viscometry | 449.1 mPa·s
305.37 K, Cone and plate viscometry | 434.2 mPa·s
305.39 K, Cone and plate viscometry | 429.1 mPa·s
306.11 K, Cone and plate viscometry | 414.9 mPa·s
306.13 K, Cone and plate viscometry | 409.9 mPa·s
306.85 K, Cone and plate viscometry | 396 mPa·s
306.86 K, Cone and plate viscometry | 390.9 mPa·s
307.59 K, Cone and plate viscometry | 378 mPa·s
307.6 K, Cone and plate viscometry | 372.5 mPa·s
308.34 K, Cone and plate viscometry | 361 mPa·s
308.35 K, Cone and plate viscometry | 356 mPa·s
309.09 K, Cone and plate viscometry | 339.9 mPa·s and 344.9 mPa·s
309.82 K, Cone and plate viscometry | 329.8 mPa·s
309.84 K, Cone and plate viscometry | 325.7 mPa·s
310.57 K, Cone and plate viscometry | 311.5 mPa·s and 315.9 mPa·s
311.31 K, Cone and plate viscometry | 301.8 mPa·s
311.32 K, Cone and plate viscometry | 297.7 mPa·s
312.05 K, Cone and plate viscometry | 288.8 mPa·s
312.06 K, Cone and plate viscometry | 284.9 mPa·s
312.8 K, Cone and plate viscometry | 273.3 mPa·s and 275.7 mPa·s
313.15 K, Concentric cylinders viscometry | 266.1 mPa·s
313.54 K, Cone and plate viscometry | 264.8 mPa·s
313.55 K, Cone and plate viscometry | 262 mPa·s
314.28 K, Cone and plate viscometry | 254 mPa·s
314.29 K, Cone and plate viscometry | 251.2 mPa·s
315.03 K, Cone and plate viscometry | 240.6 mPa·s and 243.2 mPa·s
315.77 K, Cone and plate viscometry | 230.6 mPa·s and 233 mPa·s
316.51 K, Cone and plate viscometry | 221.6 mPa·s and 223.5 mPa·s
317.25 K, Cone and plate viscometry | 213.6 mPa·s
317.26 K, Cone and plate viscometry | 214.9 mPa·s
317.99 K, Cone and plate viscometry | 206.5 mPa·s
318 K, Cone and plate viscometry | 204 mPa·s
318.74 K, Cone and plate viscometry | 196.1 mPa·s and 198.4 mPa·s
319.48 K, Cone and plate viscometry | 188.3 mPa·s and 190.7 mPa·s
320.22 K, Cone and plate viscometry | 181 mPa·s and 183.1 mPa·s
320.96 K, Cone and plate viscometry | 174.4 mPa·s
320.97 K, Cone and plate viscometry | 176 mPa·s
321.71 K, Cone and plate viscometry | 168.1 mPa·s
321.72 K, Cone and plate viscometry | 169.5 mPa·s
322.44 K, Cone and plate viscometry | 163.6 mPa·s
322.46 K, Cone and plate viscometry | 161.6 mPa·s
323.19 K, Cone and plate viscometry | 155.4 mPa·s and 157.1 mPa·s
323.93 K, Cone and plate viscometry | 149.8 mPa·s
323.94 K, Cone and plate viscometry | 151.1 mPa·s
324.68 K, Cone and plate viscometry | 144.3 mPa·s
324.69 K, Cone and plate viscometry | 145.6 mPa·s
325.43 K, Cone and plate viscometry | 139.3 mPa·s
325.44 K, Cone and plate viscometry | 140.5 mPa·s
326.17 K, Cone and plate viscometry | 135.3 mPa·s
326.18 K, Cone and plate viscometry | 135.7 mPa·s
326.91 K, Cone and plate viscometry | 129.5 mPa·s
326.92 K, Cone and plate viscometry | 130.8 mPa·s
327.65 K, Cone and plate viscometry | 124.9 mPa·s
327.67 K, Cone and plate viscometry | 126 mPa·s
328.39 K, Cone and plate viscometry | 120.8 mPa·s
328.46 K, Cone and plate viscometry | 121.6 mPa·s
329.14 K, Cone and plate viscometry | 116.8 mPa·s and 117.6 mPa·s
329.88 K, Cone and plate viscometry | 112.8 mPa·s and 113.7 mPa·s
330.62 K, Cone and plate viscometry | 108.9 mPa·s
330.63 K, Cone and plate viscometry | 109.9 mPa·s
331.36 K, Cone and plate viscometry | 105.1 mPa·s
331.37 K, Cone and plate viscometry | 106 mPa·s
332.1 K, Cone and plate viscometry | 102.6 mPa·s

Details | mass density | speed of sound [m/s]
278.15 K | 1252.41 kg/m3 and 1252.42 kg/m3 | –
278.16 K | 1252.41 kg/m3 | –
283.15 K | 1248.4 kg/m3 [middle of 4 runs] | 1460.8
288.15 K | 1244.12 kg/m3 | –
293.15 K | 1240.16 kg/m3 and 1240.34 kg/m3 and 1240.35 kg/m3 | 1425.5
293.17 K | 1240.24 kg/m3 | –
298.15 K | 1236.18 kg/m3 | –
303.15 K | 1232.68 kg/m3 and 1232.44 kg/m3 and 1232.4 kg/m3 | 1394.9
303.16 K | 1232.32 kg/m3 | –
313.15 K | 1224.86 kg/m3 and 1224.73 kg/m3 and 1224.76 kg/m3 | –
313.16 K | 1224.63 kg/m3 | 1367
323.15 K | 1217.09 kg/m3 and 1217.15 kg/m3 | 1342
323.16 K | 1217.34 kg/m3 | –
